Experimental data reported in patent US20110039763A1, “TARGETED ANTIMICROBIAL MOIETIES” (C3 JIAN, INC., priority 2009, published 2011).
Entries after “also recorded” stand apart in the source; their conditions may differ.

Each substance was assayed on microorganisms (assay: Targeting peptide binding to target microorganisms (Tables 3, 10, 12)). Conditions: microorganism(s) the targeting peptide binds; binding in aqueous buffers varied with peptide solubility, preferably 1x PBS.

Row | Substance | Target(s)
1 | PF-244 (HMRTISYLLAFAKFSLFIPPKQSLKRL; Peptide with targeting and/or antimicrobial activity) | S. epidermidis; also recorded: M. luteus; also recorded: P. aeruginosa; also recorded: A. baumannii
2 | PF-245 (MNDVKPVVQPKQTLKAFLVQLLSVRAGVYIKQNNQLPKTKG; Peptide with targeting and/or antimicrobial activity) | S. epidermidis; also recorded: M. luteus; also recorded: P. aeruginosa; also recorded: A. baumannii
3 | PF-246 (QPDEKAEFFDPSLDKVYRHPTFYHIPDGIEHM; Peptide with targeting and/or antimicrobial activity) | S. mutans
4 | PF-247 (ETAASETH; Peptide with targeting and/or antimicrobial activity) | S. epidermidis
5 | PF-248 (ILSKLWFWMINSLGVVLLVSYWLLAKWGVA; Peptide with targeting and/or antimicrobial activity) | S. mutans; also recorded: S. epidermidis; also recorded: M. luteus; also recorded: E. coli; also recorded: P. aeruginosa; also recorded: A. baumannii
6 | PF-253 (VRDDDS; Peptide with targeting and/or antimicrobial activity) | S. epidermidis; also recorded: M. luteus
7 | PF-254 (FIYGVGFVPHFWLWKWLFSPWIAWPLMLLGYYIWFLT; Peptide with targeting and/or antimicrobial activity) | S. epidermidis; also recorded: M. luteus; also recorded: P. aeruginosa; also recorded: A. baumannii
8 | PF-256 (EYFKQVYVKNEKIYSFWICKDLSPKEAAKRAEDILVKLK; Peptide with targeting and/or antimicrobial activity) | S. epidermidis
9 | PF-259 (LPFSKIGRRVSYKKKDVLKYEQSKTVLNTAQLATV; Peptide with targeting and/or antimicrobial activity) | S. epidermidis; also recorded: P. aeruginosa; also recorded: A. baumannii
10 | PF-262 (DPHSEIDVTRYCQLHHFTCQTMQISEREFHYLIETQ; Peptide with targeting and/or antimicrobial activity) | S. mutans; also recorded: S. epidermidis; also recorded: M. luteus; also recorded: E. coli; also recorded: P. aeruginosa; also recorded: A. baumannii
11 | PF-263 (NLKKCPC; Peptide with targeting and/or antimicrobial activity) | S. epidermidis; also recorded: M. luteus; also recorded: A. baumannii
12 | PF-265 (MKTLFFPLFLIIFVLIIQALDQSYQKKIGISKPQKHPEFMQ; Peptide with targeting and/or antimicrobial activity) | S. epidermidis; also recorded: M. luteus; also recorded: A. baumannii
13 | PF-266 (DQEKKNKTEESTEQ; Peptide with targeting and/or antimicrobial activity) | S. mutans
14 | PF-267 (SDDKRTD; Peptide with targeting and/or antimicrobial activity) | M. luteus
15 | PF-268 (EVLLSDLRPDIFSET; Peptide with targeting and/or antimicrobial activity) | S. mutans
16 | PF-275 (LVSGVANTVKNTAHTVGNTAKHAGHVAADTTVKATKKQQVK; Peptide with targeting and/or antimicrobial activity) | S. mutans
17 | PF-279 (SHIGFISISACLAVLLGIARLFVWTWVKFFA; Peptide with targeting and/or antimicrobial activity) | S. mutans; also recorded: S. epidermidis; also recorded: M. luteus; also recorded: E. coli; also recorded: P. aeruginosa; also recorded: A. baumannii
18 | PF-281 (SYNTYYNKLIHGQRTPDGM; Peptide with targeting and/or antimicrobial activity) | S. mutans; also recorded: E. coli
19 | PF-282 (QNNDTSAWCGSAHKNGNS; Peptide with targeting and/or antimicrobial activity) | S. mutans
20 | PF-284 (MRYITYSLIPRLLSKKVIHQQ; Peptide with targeting and/or antimicrobial activity) | C. difficile
21 | PF-285 (VPAKLLRVIDEIPE; Peptide with targeting and/or antimicrobial activity) | S. mutans
22 | PF-288 (IYQLLNIEYSEDD; Peptide with targeting and/or antimicrobial activity) | S. mutans; also recorded: E. coli
23 | PF-291 (DVDGAIESEL; Peptide with targeting and/or antimicrobial activity) | S. mutans; also recorded: E. coli
24 | PF-295 (NIQVYESECGNYIFKKSDESFLIDIFDKNGTH; Peptide with targeting and/or antimicrobial activity) | C. difficile
25 | PF-299 (LATKLKYEKEHKKM; Peptide with targeting and/or antimicrobial activity) | B. subtilis
26 | PF-300 (VKDVLLELFNKIIGA; Peptide with targeting and/or antimicrobial activity) | B. subtilis; also recorded: C. difficile
27 | PF-304 (LVKDTSDIKNDLNNIEIVTSKNSNDIAKLKSVK; Peptide with targeting and/or antimicrobial activity) | S. mutans

Row | Substance | Target(s)
28 | PF-308 (QQYLILDRM; Peptide with targeting and/or antimicrobial activity) | C. difficile
29 | PF-309 (GIPGMTAAPAEENEQEENADEE; Peptide with targeting and/or antimicrobial activity) | S. mutans; also recorded: E. coli
30 | PF-311 (IDAVTKKKTTCMIRAPTKIPIAHTDN; Peptide with targeting and/or antimicrobial activity) | C. difficile
31 | PF-314 (ECLKKAIKSKALNKAFKIDVPDEVYDNLLMELEEYEK; Peptide with targeting and/or antimicrobial activity) | S. mutans
32 | PF-317 (LILVSDI; Peptide with targeting and/or antimicrobial activity) | S. mutans
33 | PF-320 (DSGYYALLENKEERVVWDGEVVANNIFNNLWIVVNKVKTG; Peptide with targeting and/or antimicrobial activity) | S. mutans; also recorded: E. coli
34 | PF-323 (ARESIEKSHVPVDATIVGVVDSFEVFDE; Peptide with targeting and/or antimicrobial activity) | S. mutans
35 | PF-324 (HFSLL; Peptide with targeting and/or antimicrobial activity) | C. difficile
36 | PF-325 (LTIDEKLRNHR; Peptide with targeting and/or antimicrobial activity) | S. mutans; also recorded: E. coli
37 | PF-326 (VIVGNLGAQKEKRNDTPISAKKDIMGDKTVRVRADLHH; Peptide with targeting and/or antimicrobial activity) | S. mutans; also recorded: E. coli
38 | PF-328 (NGNEKAFSEVENLVK; Peptide with targeting and/or antimicrobial activity) | S. mutans
39 | PF-329 (IGILFDKSVRKY; Peptide with targeting and/or antimicrobial activity) | S. epidermidis
40 | PF-333 (YMTKKLVEMAEQQMAGKSNR; Peptide with targeting and/or antimicrobial activity) | S. mutans
41 | PF-334 (QQYLILDRM; Peptide with targeting and/or antimicrobial activity) | S. epidermidis; also recorded: C. difficile
42 | PF-337 (YMTKKLVEMAERQMAGK; Peptide with targeting and/or antimicrobial activity) | S. epidermidis
43 | PF-338 (KGTSCPDQLSKAIRQSI; Peptide with targeting and/or antimicrobial activity) | S. mutans
44 | PF-340 (VKDVLLELFNKIIGA; Peptide with targeting and/or antimicrobial activity) | S. mutans; also recorded: E. coli
45 | PF-348 (ESASAAEWYNPNMNVKKAICMG; Peptide with targeting and/or antimicrobial activity) | B. subtilis; also recorded: E. coli; also recorded: P. aeruginosa; also recorded: C. albicans; also recorded: E. faecalis; also recorded: C. jejuni
46 | PF-351 (YLFFKGKKVAEEEATKDEVKR; Peptide with targeting and/or antimicrobial activity) | S. mutans
47 | PF-352 (RVKKIG; Peptide with targeting and/or antimicrobial activity) | C. jeikeium
48 | PF-359 (MTVMEDPGSEQRNKIQSPMKGEDFSALFGR; Peptide with targeting and/or antimicrobial activity) | S. epidermidis and B. fragilis and P. aeruginosa and C. albicans and MRSA and E. faecalis and C. jeikeium
49 | PF-361 (NQVTEGIRLLVE; Peptide with targeting and/or antimicrobial activity) | S. epidermidis; also recorded: E. coli; also recorded: E. faecalis; also recorded: C. jejuni
50 | PF-364 (LVNGIKI; Peptide with targeting and/or antimicrobial activity) | S. epidermidis; also recorded: B. fragilis; also recorded: P. aeruginosa; also recorded: C. jeikeium; also recorded: C. jejuni
51 | PF-365 (LYKQKIQLEEELEKLKDDRQ; Peptide with targeting and/or antimicrobial activity) | S. epidermidis; also recorded: B. subtilis; also recorded: B. fragilis; also recorded: P. aeruginosa; also recorded: C. albicans
52 | PF-367 (TKTPGTFTPGTGIQKTAVPL; Peptide with targeting and/or antimicrobial activity) | B. subtilis
53 | PF-368 (MLKQTA; Peptide with targeting and/or antimicrobial activity) | C. jeikeium; also recorded: C. jejuni
54 | PF-371 (TFIYNEF; Peptide with targeting and/or antimicrobial activity) | S. epidermidis; also recorded: B. fragilis; also recorded: C. jejuni
